From patent publication US9896423B2, “Deuterium substituted 1-[2-(2,4-dimethyl-phenylsulfanyl)-phenyl]piperazine compound or derivatives thereof, and pharmaceutical composition and use thereof” (Jiangsu Jibeier Pharmaceutical Co. Ltd., priority 2014, dated 2018)
Several values for one entry are separate records, joined by “and”; a condition that tells them apart may be missing. Equal values may be shown once. Where a name gives a salt, the structure may show the parent alone. Read-outs that look alike come from different tables or passages of the source.

How the values were obtained:
[1] = Pharmacokinetic test in rats, intravenous injection; type: in vivo, SD rats; settings: for concentration at 0.25 h / concentration at 0.5 h / concentration at 1 h / concentration at 2 h / concentration at 3 h: Sprague-Dawley, intravenous, 2 mg/kg iv
Method: The preferred compound of the present disclosure was assessed in rats for its pharmacokinetic profile.
SD rats, male and female, weighing 150 to 250 g
Mobile phase: 10 mM ammonium formate aqueous solution:methanol=15:85
The ionization source was electrospray ionization source. The detection mode was positive mode. Multiple reaction monitoring (MRM) was used as the scanning mode. The ion reaction for the quantitative analysis was the following: m/z was 305.2\150.0 for XX, and 256.1\167.1 for diphenhydramine (the internal standard).
Four male SD rats were taken. The dosage was calculated as 5 mL/kg body weight and 2 mg/kg. XX or YY was dissolved in DMSO (3% of a total volume) and castor oil (3% of the total volume) was added to the solution, followed by agitating with a vortex mixer. Subsequently, saline was added to the mixture to the total volume to afford the intravenous injection for the rats. The injections were intravenously administered to four male SD rats. Blood from the rats' orbits was collected 3 min, 8 min, 15 min, 30 min, 1 hr, 2 hr, 3 hr, 4 hr, 6 hr, 9 hr, 12 hr and 24 hr later after the injection, respectively.
After the blood collection, the tubes were immediately gently turned upside down at least five times to ensure sufficient mixing, and placed on ice. Heparin was added for anticoagulation. The samples were centrifuged at 8000 rpm for 5 min to separate serum from erythrocyte. The serum was transferred with a pipettor to 2 mL polypropylene (PP) tubes, which were marked with the name of the compound and the time points, and stored in a refrigerator at −40° C. before LC-MS analysis. Samples with high concentrations were diluted with rat blank plasma.
2.5 μL of Meth-H2O and 5 μL of the internal standard solution (20 ng/mL, IS) were added to 50 μL of the plasma. Subsequently, 150 μL of methanol was added to the mixture to precipitate protein and the samples were then centrifuged at 13000 rpm for 5 min. The upper organic phase was taken out, filtrated with a 0.22 μM microporous membrane, and 2 μL of the sample was injected for the LC-MS analysis.

Male ICR mice = assay: Mice swimming test; type: in vivo; settings: for effect on length of time that the mice stopped swimming vs blank control: two successive weeks; for Duration without Movement within the Last 4 min of the Whole 6 min: mice, gavage once a day for 14 days, n = 10, x ± s
Description: The following method is used for testing the antidepression effect of the compound of the present application. ICR mice or SD rats, gavaged for two successive weeks, were subjected to mice swimming test, mice tail suspension test and rats swimming test. See below for details of the tests and results.
Male ICR mice weighing 18 g to 20 g were used. They were fed on sterilized standard feed.
The compound administered in the test was 1-{2-[2,4-bis(trideuteriomethyl)phenylsulfanyl]phenyl}piperazine hydrobromic acid salt (XX for short). Vortioxetine (YY for short) was used as a control sample. Venlafaxine HCl (from Wyeth, USA) was used as a positive control.
Vortioxetine (15 mg) was combined with 10% hydroxypropyl-β-cyclodextrin to form a solution of 100 mL and was administered at daily dose of 3 mg/kg. 1-{2-[2,4-bis(trideuteriomethyl)phenylsulfanyl]phenyl}piperazine hydrobromic acid salt (15 mg and 7.5 mg) was combined with 10% hydroxypropyl-β-cyclodextrin to form two solutions of 100 mL and was administered at daily doses of 3 mg/kg and 1.5 mg/kg, respectively. Venlafaxine HCl (75 mg) was combined with 0.5% CMC-Na to form a solution of 100 mL and was administered at daily dose of […].
A recording and analysis system for small-animal behavior (Noldus) was used.
All the eighty mice were subjected to prescreening one day before the administration. The mice, fasted for 4 hours were put in a round glass tank (ø 14 cm×h 20 cm, with water of 10 cm depth and at a temperature of 25° C.) to swim. […] The whole swimming course was recorded by the video and the data were collected and analyzed automatically by Noldus software.
The forty qualified mice were divided into 4 groups, each of which had 10 mice, according to the Excel random grouping.
The medicaments were administered to each group by gavage with the amount of 0.2 ml per 10 g of body weight, once a day for 14 successive days. One hour later after the last oral administration, the mice were allowed to swim for 6 min. The video recorded the whole swimming course, and the Noldus software automatically collected and analyzed the data.
The data was given as “average±standard deviation” (x±s). One-way analysis of variance (one-way ANOVA) was used for data difference statistics. Differences among the groups were determined by P<0.05.

[2] = male, rat, plasma, 2 mg/kg, individual rats, read-out: Concentrations in Plasma of Rats after Intravenous Injection
[3] = male, rat, plasma, 2 mg/kg, mean, read-out: Concentrations in Plasma of Rats after Intravenous Injection, Mean ± SD
[4] = rats, iv 2 mg/kg, individual rats, 2 mg/kg

Structure (SMILES): [2H]C([2H])([2H])c1ccc(Sc2ccccc2N2CCNCC2)c(C([2H])([2H])[2H])c1 [XX, 1-{2-[2,4-bis(trideuteriomethyl)phenylsulfanyl]phenyl}piperazine hydrobromic acid salt]
- half-life ([1]; male, SD, rat, plasma, iv, 2 mg/kg, rats, iv 2 mg/kg, XX n = 4, YY n = 3, read-out: t1/2, Mean ± SD (converted)): 5.47 ± 1.49 h
- AUC(0-t) ([1]; male, SD, rat, plasma, iv, 2 mg/kg, rats, iv 2 mg/kg, individual rats 1-4 (Table 9), read-out: AUC0-1): 462 ng·h/mL
- AUC(0-inf) ([1]; male, SD, rat, plasma, iv, 2 mg/kg, rats, iv 2 mg/kg, individual rats, read-out: AUC0-∞): 467 ng·h/mL
- Cmax ([1]; male, SD, rat, plasma, iv, 2 mg/kg, rats, iv 2 mg/kg, individual rats, read-out: Cmax): 134 ng/mL
- MRT inf ([1]; male, SD, rat, plasma, iv, 2 mg/kg, rats, iv 2 mg/kg, individual rats, read-out: MRT0-∞): 6.59 h
- Vd ([1]; male, SD, rat, plasma, iv, 2 mg/kg, rats, iv 2 mg/kg, individual rats, read-out: Vz): 23 L/kg
- half-life ([1]; male, SD, rat, plasma, iv, 2 mg/kg, rats, iv 2 mg/kg, individual rats, read-out: t1/2 (converted)): 3.72 h
- AUC(0-t) ([1]; male, SD, rat, plasma, iv, 2 mg/kg, rats, iv 2 mg/kg, n = 4 (Table 9), read-out: AUC0-1, Mean ± SD): 461 ± 29.5 ng·h/mL
- concentration at 0.25 h [1, 2]: 78.1 ng/mL
- concentration at 0.25 h [1, 3]: 77.8 ± 0.78 ng/mL
- concentration at 0.5 h [1, 2]: 76.6 ng/mL
- concentration at 0.5 h [1, 3]: 75.2 ± 2.61 ng/mL
- concentration at 1 h [1, 2]: 72.2 ng/mL
- concentration at 1 h [1, 3]: 69.9 ± 3.51 ng/mL
- concentration at 2 h [1, 2]: 60.7 ng/mL
- concentration at 2 h [1, 3]: 63.2 ± 7.01 ng/mL
- concentration at 3 h [1, 2]: 49.6 ng/mL
- concentration at 3 h [1, 3]: 47.8 ± 6.6 ng/mL
- CL, Mean ± SD ([1]; rats, iv 2 mg/kg, XX n = 4, YY n = 3): 4.16 ± 0.20 L/h/k
- AUC0-1 ([1]; rats, iv 2 mg/kg, individual rats 1-4 (Table 9), 2 mg/kg): 492.9 ng·h/mL and 466.0 ng·h/mL and 421.5 ng·h/mL
- AUC0-∞ [1, 4]: 512.0 ng·h/mL and 489.7 ng·h/mL and 459.8 ng·h/mL
- CL [1, 4]: 42.8 L/h/k and 3.91 L/h/k and 4.09 L/h/k and 4.35 L/h/k
- Cmax [1, 4]: 123.2 ng/mL and 127.2 ng/mL and 121.4 ng/mL
- MRT0-∞ [1, 4]: 6.14 h and 6.67 h and 8.08 h
- Vz [1, 4]: 29.0 L/kg and 33.4 L/kg and 46.0 L/kg
- t1/2 [1, 4]: 5.15 h and 5.66 h and 7.33 h
- effect on length of time that the mice stopped swimming vs blank control (Male ICR mice; 1.5 mg/kg gavage): markedly shortened
- effect on length of time that the mice stopped swimming vs blank control (Male ICR mice; 3 mg/kg gavage): markedly shortened
- Duration without Movement within the Last 4 min of the Whole 6 min (Male ICR mice; 1.5 mg/kg): 173.4 ± 36.1 s
- Duration without Movement within the Last 4 min of the Whole 6 min (Male ICR mice; 3 mg/kg): 176.3 ± 37.5 s
